One test relates to NF-κB signaling pathway. Briefly: NF-κB-dependent luciferase reporter (5×κB-luciferase/pTK-Renilla), TNF-α-induced, HEK293T cells. Format: cell-based. Conditions: HEK293T; RA-V 6 h, then 10 ng/mL TNF-α 2 h; three independent experiments; read-out: IC50, NF-κB-dependent luciferase reporter. The procedure:
HEK293T or HeLa cells were seeded in 24-well plates and transiently transfected with the 5 × κB-luciferase and pTK-Renilla reporters using Lipofectamine 2000 (Invitrogen) for 18 h. The cells were then incubated with different concentrations of the compounds for the indicated times and subsequently stimulated with 10 ng/mL TNF-α for 2 h. The luciferase activity in the cell lysates was analyzed using the Dual Luciferase Reporter Assay System (Promega). The luciferase reporter assays were performed as previously described.
Supplementary Figure 1. RA-V has the best inhibitory effect on NF-κB signaling pathway among RAs. (a-b) HEK293T cells were transfected with the 5×κB-luciferase and pTK-Renilla reporters. Twenty-four hours after transfection, the cells were incubated with various concentrations of the indicated compounds for 6 h and then treated with 10 ng/ml TNF-α for 2 h before the luciferase activity assays. The data are presented as the means ± S.D. from three independent experiments. […]
Scheme for CB12 synthesis. (c) CB12 inhibited NF-κB reporter activity in a dose-dependent manner. The HEK293T cells were transfected with the 5×κB-luciferase and pTK-Renilla reporters. Twenty-four h after transfection, the cells were treated with various concentrations of CB12 for 6 h and then treated with 10 ng/ml TNF-α for 2 h before the luciferase activity assays. (d) […]
Supplementary Table 3: Screening data of small molecules
Category Parameter Description
Assay Type of assay Cell-based
Target NF-κB signaling pathway
Primary measurement Detection of Firefly luciferase enzyme activities and Renilla Luciferase expression
Key reagents 5 × κB-lucieferase and luciferase assay (Progema)
Assay protocol HEK293T cells were seeded in 24 -well plates and transiently transfected with 20 ng of 5×κB-luciferase and 2 ng of pTK-Renilla reporters using Lipofectamine
2000 (Invitrogen) for 18 h. The cells were then incubated with small molecules (10 μM) for 6 hours, and subsequently stimulated with 10 ng/ml TNF -α for 2 h. Luciferase activity of the cell lysates was analysed by the Dual Luciferase Reported Assay System
(Promega). The Firefly luciferase enzyme activities were determined for NF -κB signaling activities and normalized to Renilla Luciferase expression.
Library Library size approximately 200
Library composition natural and synthetic chemical compounds, including cyclopeptides, quinones and terpenes.
Source State Key Laboratory of Phytochemistry and Plant
Resources in West China, Kunming Institute of Botany, Chinese Academy of Sciences
Screen Format 24-well, Corning
Concentration(s) tested 10 μM
Reagent/ compound dispensing system Manual
Detection instrument and software Synergy 2 (BioTek)
Assay validation/QC Velcade inhibits NF-κB signaling pathway
Normalization The Firefly luciferase enzyme activities were normalized by Renilla Luciferase expression
Post-HTS analysis Hit criteria κB-luc/ Renilla ratio < 0.5 standard deviations from the […]
Hit rate Approximately 15%
Confirmation of hit purity and structure Compounds were verified by HPLC and NMR
In general terms: Reporter assays use an easily measured gene product as a stand-in for the process of interest.

Test [1] deals with p65 nuclear translocation. Briefly: Immunofluorescence assay of p65 nuclear translocation. Format: cell-based. Conditions: HeLa; 200 nM RA-V 6 h, 10 ng/mL TNF-α 15 min.
Test [2] relates to LPS-induced endotoxin shock. In words: Mouse endotoxin shock model. The test is classed as in vivo, mice. The procedure:
The above results prompted us to explore the in vivo effect of RA-V on the NF-κB signaling pathway. We extended our study to the mouse endotoxin shock model, in which mice were intraperitoneally injected with LPS (10 mg/kg or 20 mg/kg) and evaluated for changes by examining physiological parameters induced by the inflammatory response.
First, the mice were intravenously injected with RA-V micelles (0.25 mg/kg body weight) or control micelles at three time points: 52, 28, and 4 h before they were intraperitoneally injected with phosphate-buffered saline (PBS) or LPS (10 mg/kg). One hour after LPS injection, we examined proinflammatory cytokines (IL-6 and TNF-α) production at the transcriptional and translational levels. […] As expected, after receiving the LPS injection, all of the control mice died within 36 h, whereas 60% of the RA-V-treated mice survived (Fig. 2d). To further confirm the in vivo effect of RA-V on the NF-κB pathway, we performed the endotoxin shock model on NF-κB-luciferase transgenic mice.
Fig. 2 RA-V prevents endotoxic shock and inhibits NF-κB activation in vivo. a–c RA-V prevents endotoxic shock in vivo. Mice (n = 6 per group) were intravenously injected with RA-V micelles (0.25 mg/kg body weight) or control micelles 52, 28, and 4 h before an intraperitoneal injection of LPS (10 mg/kg). One hour later, the relative levels of IL-6 and TNF-α mRNAs in the liver were assessed by quantitative RT-PCR (a), the serum IL-6 and TNF-α levels were quantified by ELISA (b), and the expression of p65 and IκBα phosphorylation in the liver were measured by immunoblot analysis c. d RA-V improved animal survival. Mice (n = 20 per group) were intravenously injected with RA-V micelles (0.25 mg/kg body weight) or control micelles 52, 28, and 4 h before intraperitoneal injection of LPS (20 mg/kg). Animal survival was recorded in 2–3 hours intervals. e RA-V inhibits NF-κB activation in vivo. The NF-κB-luc transgenic mice (n = 4 per group) were intravenously injected with RA-V micelles (0.25 mg/kg body weight) or control micelles 52, 28, and 4 h before intraperitoneal injection with LPS (10 mg/kg). NF-κB-luc transgenic mice were photographed at different time points and representative images are shown. The bioluminescent signals from all of the mice were detected and quantified. The data are presented as the means ± S.D. *, p < 0.05; **, p < 0.01

The mark [3] stands for this setting: RA-V micelles 0.25 mg/kg i.v. 52, 28, 4 h before LPS 10 mg/kg i.p., 1 h after LPS, n = 6.

A word on the IC50: it is the concentration that gives 50% inhibition. Consider RA-V, for which the concentration for half-maximal inhibition (IC50) in the test on NF-κB signaling pathway turned out to be 64.6 nM. The “TNF-α-induced p65 nuclear translocation” value in test [1] is recorded as “significantly blocked”. In test [2] (setting [3]), the “IL-6 and TNF-α in the serum (ELISA)” value is “reduced expression”; the “expression of IL-6 and TNF-α mRNAs in liver tissue” value is recorded as “significantly decreased”. In test [2] (RA-V micelles 0.25 mg/kg i.v. 52, 28, 4 h before LPS 10 mg/kg i.p., immunoblot), the “phosphorylation of IκBα and p65 in liver tissue” value is recorded as “clearly inhibited”. In addition, the “survival of mice after lethal dose of LPS” value in test [2] (RA-V micelles 0.25 mg/kg i.v. 52, 28, 4 h before LPS 20 mg/kg i.p., n = 20, all control mice died within 36 h) amounted to 60%.

These data come from article PMC6006164, “Natural cyclopeptide RA-V inhibits the NF-κB signaling pathway by targeting TAK1” (Cell Death & Disease, 2018).
